≈ marks a conversion by molar mass, not a printed value.
Conditions: buffer; pH 7.4; 200.0 µM

SMILES	solubility kinetic
CCOc1ccc(CN(C)C(=O)CNC(=O)c2ccccc2)cc1	> 49 µg/mL
O=C(NCCCN1CCOCC1)c1cc(-c2ccco2)nc2ccccc12	49.6 µg/mL (≈ 136 µM)
O=C(/C=C/c1ccco1)N(Cc1ccccc1)C1CCS(=O)(=O)C1 (stereo unspecified)	47.1 µg/mL (≈ 136 µM)
Cc1onc(-c2c(F)cccc2Cl)c1C(=O)N(C)C1CCCCC1	> 52.6 µg/mL
O=C(NCc1ccco1)c1ccc2[nH]c(=O)c(=O)[nH]c2c1	> 42.8 µg/mL
CC1CC(C)CN(C(=O)C2CC(=O)N(c3ccc(F)cc3)C2)C1 (stereo unspecified)	34.7 µg/mL (≈ 109 µM)
CC(=O)c1cccc(NC(=O)c2sc(Cl)nc2C)c1	> 44.2 µg/mL
COc1ccccc1C(=O)NCC(=O)Nc1cccnc1	> 42.8 µg/mL
COc1ccc(CCNC(=O)Cc2cccs2)cc1OC	> 45.8 µg/mL
CC1CCCC(C)N1C(=O)COC(=O)c1c[nH]c2ccccc12 (stereo unspecified)	8.1 µg/mL (≈ 25.8 µM)
Cc1ccc(C(=O)N2CCN(C(=O)C3CCCO3)CC2)cc1 (stereo unspecified)	> 45.4 µg/mL
Cc1cc(C2CC(=O)Nc3ccccc3S2)c(C)s1 (stereo unspecified)	< 0.6 µg/mL
CC[C@H](C)[C@H](NC(N)=O)C(=O)Nc1ccc(NC(C)=O)cc1	> 46 µg/mL
COc1cc(N2C(=O)CSC2=S)cc(OC)c1OC	41 µg/mL (≈ 137 µM)
CC1CCN(CCC(=O)Nc2nccs2)CC1	33.7 µg/mL (≈ 133 µM)
Cc1c(C(=O)N2CCNCC2)oc2ccccc12.Cl	40.9 µg/mL
O=C(NC1(C(F)(F)F)NC(=O)N(C2CCCCC2)C1=O)C1CC1 (stereo unspecified)	> 50 µg/mL
CCOC(=O)C1CCN(CC(=O)N2CCc3ccccc32)CC1	> 47.5 µg/mL
O=C(/C=C/c1ccccc1)NCc1ccco1	> 34.1 µg/mL
O=C(CCC(=O)c1ccccc1)NCCOc1ccccc1	> 44.6 µg/mL
CCC(C)C(=O)Nc1ccc(S(=O)(=O)N2CCCC2)cc1 (stereo unspecified)	42.3 µg/mL (≈ 136 µM)
CCOC(=O)CCCNC(=O)CCNC(=O)c1ccc(OCCC(C)C)cc1	> 58.9 µg/mL
COc1ccc(NC(=O)C(=O)Nc2cccc3ccccc23)c(OC)c1	< 0.4 µg/mL
CN1CCN(c2ncnc3nc[nH]c23)CC1	28.8 µg/mL (≈ 132 µM)
CCCCN(C)C(=O)c1cc2cc([N+](=O)[O-])cc(OC)c2oc1=O	> 50.1 µg/mL

SMILES	solubility kinetic
Nc1nc(-c2cccs2)c(-c2cccs2)s1	5.8 µg/mL (≈ 21.9 µM)
CC1=CC(C)(C)NC(=S)N1NC(=O)c1ccccc1Cl	> 46.5 µg/mL
COc1ccc(OCC(=O)Nc2ccc3c(c2)CCC3)cc1	19.3 µg/mL (≈ 64.9 µM)
Cl.N=c1ccn(Cc2cccc(F)c2)cc1	30.8 µg/mL
O=C(Nc1cccs1)N1CCN(c2ncccn2)CC1	> 43.4 µg/mL
COC(=O)CNC(=O)COC(=O)Cc1ccc(Cl)cc1	> 45 µg/mL
CCOC1=CC(=O)N(Cc2ccccc2)C1	> 32.6 µg/mL
CC(CCc1ccccc1)NC(=O)COC(=O)c1cccnc1Cl (stereo unspecified)	> 52 µg/mL
CC(C)(C)C(=O)N(Cc1ccc(Cl)cc1)Cc1cccnc1	42.6 µg/mL (≈ 134 µM)
CN1C=CC=C/C1=C1/N=C(c2ccccc2)OC1=O	> 37.8 µg/mL
COc1ccc(C(=O)NCc2ccc3[nH]c(C)cc3c2)cc1OC	23.5 µg/mL (≈ 72.4 µM)
CCCCC1(C)NC(=O)N(CC(=O)Nc2ccc(Cl)cc2C)C1=O (stereo unspecified)	48.7 µg/mL (≈ 138 µM)
O=C1NC(=Nc2ccc(F)cc2)SC1Cc1ccc(F)cc1 (stereo unspecified)	1 µg/mL (≈ 3.14 µM)
COCCNC(=O)/C(C#N)=C/c1ccc(O)c([N+](=O)[O-])c1	> 43.7 µg/mL
O=C(c1ccc2ccccc2c1)N1CCN(c2ccccn2)CC1	47.5 µg/mL (≈ 150 µM)
COc1ccc(Nc2ccc(C(F)(F)F)cc2[N+](=O)[O-])cn1	1.8 µg/mL (≈ 5.75 µM)
Fc1ccc(CNC(=S)NC2CCCCCC2)cc1	28.3 µg/mL (≈ 101 µM)
Cc1ccccc1NC(=O)CCCCC(=O)Nc1ccccc1C	2.6 µg/mL (≈ 8.01 µM)
CC(NC(=O)CCSCc1ccccc1F)c1ccccc1 (stereo unspecified)	44.5 µg/mL (≈ 140 µM)
O=C(NC(=O)N1CCC2(CC1)OCCO2)c1ccc(Cl)cc1	> 48.7 µg/mL
COc1ccc(Cl)cc1N=Cc1c(O)c2ccccc2oc1=O	< 0.7 µg/mL
O=S1(=O)CCN(Cc2csc(-c3cccs3)n2)CC1	> 47.2 µg/mL
NS(=O)(=O)c1ccc(CCNC(=O)COC(=O)c2ccc([N+](=O)[O-])o2)cc1	> 59.6 µg/mL
COc1ccc(NC(=S)N2CCN(C)CC2)cc1	> 39.8 µg/mL
O=C(Nc1ccncc1)c1c(Cl)cccc1Cl	8.9 µg/mL (≈ 33.3 µM)

SMILES	solubility kinetic
Cc1cc(OC(=O)c2ccccc2Cl)ccc1N1C(=O)CCC1=O	19 µg/mL (≈ 55.3 µM)
CS(=O)(=O)Nc1ccc(C(=O)Nc2ccc3c(c2)OCO3)cc1	6.2 µg/mL (≈ 18.5 µM)
O=C(CNC(=O)c1ccccc1)NCCCSc1ccccc1	25.2 µg/mL (≈ 76.7 µM)
CS(=O)(=O)c1ccc(Cl)c(NC(=O)CNC(=O)c2ccc3c(c2)OCO3)c1	> 61.6 µg/mL
Cn1cccc1CNC(=S)Nc1cc(F)cc(F)c1	> 42.2 µg/mL
Cc1ccc(CONC(=O)c2ccc(Cl)cc2)cc1	2 µg/mL (≈ 7.25 µM)
COc1ccc(NC(=O)/C=C/c2ccc(OC(F)F)cc2)cn1	2 µg/mL (≈ 6.24 µM)
O=C1C2CC(O)CN2C(=S)N1Cc1ccccc1 (stereo unspecified)	> 39.3 µg/mL
Cl.O=[N+]([O-])c1ccc(N2CCCNCC2)c2ncccc12	36.7 µg/mL
CCC(C(=O)NCCc1ccc(S(N)(=O)=O)cc1)c1ccccc1 (stereo unspecified)	> 52 µg/mL
CCOc1ccccc1NC(=O)N1CCCC1C(=O)NCc1ccco1 (stereo unspecified)	48.2 µg/mL (≈ 135 µM)
COC(=O)C1CCN(c2cnccn2)CC1	> 33.2 µg/mL
CC(Sc1cccc[n+]1[O-])c1ccccc1 (stereo unspecified)	> 34.7 µg/mL
CC1CN(C(=S)NC2CCCC2)CC(C)O1 (stereo unspecified)	> 36.4 µg/mL
CCCn1c(N)c(N(CCOC)C(=O)CSc2c(Cl)cccc2Cl)c(=O)[nH]c1=O	53 µg/mL (≈ 115 µM)
Cn1c(-c2ccncc2)nc2ccccc21	> 31.4 µg/mL
COc1cccc(C(=O)Nc2cccnc2)c1OC	> 38.7 µg/mL
COc1ccc(CN(C)C(=O)c2ccc(NS(=O)(=O)c3ccc4[nH]c(=O)[nH]c4c3)cc2)c(OC)c1OC	> 79 µg/mL
CCCCN(C(C)=O)c1ccc(S(=O)(=O)NC2=NCCCCC2)cc1NC(C)=O	> 63.4 µg/mL
CCn1c(SCc2cccc(OC)c2)nc2ccccc2c1=O	0.8 µg/mL (≈ 2.45 µM)
CCc1noc(C)c1C(=O)Nc1nc2c(C)cc(C)cc2s1	3.2 µg/mL (≈ 10.1 µM)
CC(=O)Nc1ccc(S(=O)(=O)N2CCSc3ccccc32)cc1	49.6 µg/mL (≈ 142 µM)
CN(C)C(=O)CCCCCCCCC(=O)N(C)C	> 38.5 µg/mL
Cc1cccc(OCC(=O)N2CCc3ccccc3C2)c1	34.6 µg/mL (≈ 123 µM)
COc1ccc(OC)c(/C=C2\N=C(c3ccccc3)OC2=O)c1	0.8 µg/mL (≈ 2.59 µM)

SMILES	solubility kinetic
O=C(CN1CCCCC1)Nc1ccccc1C(=O)NC1CC1	> 45.2 µg/mL
O=c1[nH]c(N2CCOCC2)nc2ccccc12	> 34.7 µg/mL
CC(C)C(NC(=O)c1ccccc1F)C(=O)Nc1nccs1 (stereo unspecified)	48.2 µg/mL (≈ 150 µM)
COc1ccccc1COC(=O)CN1C(=O)NC2(CCCCC2C)C1=O (stereo unspecified)	> 54.1 µg/mL
Cc1ccc(NC(=O)CN(C)C(=O)COc2ccccc2-c2ccccc2)cc1	11.1 µg/mL (≈ 28.6 µM)
O=C(NCCN1CCCCC1)Nc1ccc(Cl)cc1	> 42.3 µg/mL
Cl.c1cncc(CNc2ncnc3sc4c(c23)CCC4)c1	7.5 µg/mL
Cc1nn(CC(=O)NC2CCCCC2)c(=O)c2cccn12	> 43.3 µg/mL
COCCn1c(SCC(=O)NC2CCCC2)nc2cccnc21	> 50.2 µg/mL
Cc1cccc(CSc2nc3c(c(=O)n2C)SCC3)c1	11.6 µg/mL (≈ 38.1 µM)
Cc1ccc(CCC(=O)Nc2cc(Cl)ccc2Cl)o1	1.9 µg/mL (≈ 6.37 µM)
O=C(COC(=O)CNC(=O)C1CCCCC1)Nc1ccccc1	> 47.8 µg/mL
NC(=O)C1CCN(C(=O)c2cc(-c3ccc(Cl)s3)nc3ccccc23)CC1	9.4 µg/mL (≈ 23.5 µM)
Cl.OC(CNCc1ccccc1)COCc1ccc(Cl)cc1 (stereo unspecified)	34.2 µg/mL
Cc1ccc(Cl)cc1N1CCN(C(=S)NCc2ccco2)CC1	1 µg/mL (≈ 2.86 µM)
O=C(CCl)NCc1cc(-c2ccc(Cl)cc2)no1	13.2 µg/mL (≈ 46.3 µM)
CCOc1ccc(S(=O)(=O)N2CCN(C(=O)c3cc4ccccc4o3)CC2)cc1	6 µg/mL (≈ 14.5 µM)
COc1ccc(C(=S)N2CCOCC2)cc1OC(=O)c1ccccc1	23.6 µg/mL (≈ 66 µM)
Cc1ccc(C(=O)NCCCN2CCOCC2)c(C)c1	> 41.5 µg/mL
CC(C)=CCN1CCN(Cc2cc3ccccc3[nH]2)CC1CCO (stereo unspecified)	45.8 µg/mL (≈ 140 µM)
O=C(Nc1ccc(F)cc1)Nc1cnccn1	27.9 µg/mL (≈ 120 µM)
Cc1cc([N+](=O)[O-])ccc1NCc1ccc2c(c1)OCCO2	10.8 µg/mL (≈ 36 µM)
NC(=NCc1ccco1)NC(=O)c1ccc(Cl)cc1	> 41.7 µg/mL
Cn1c(=O)[nH]c(=O)c2c1nc(NCCN)n2CCOc1ccccc1	49.1 µg/mL (≈ 143 µM)
COc1ccc(CCNC(=O)Cc2ccc(Cl)cc2)cc1OC	> 50.1 µg/mL

SMILES	solubility kinetic
O=C(c1cn(Cc2ccccc2)c2ccccc12)C1CC1	< 0.6 µg/mL
CCC(=O)OC1(c2ccccc2)C(C)CN(C)CC1C.Cl (stereo unspecified)	> 46.8 µg/mL
NC(=O)c1cc[n+](CC(=O)NC(=O)Nc2ccccc2)cc1	30.5 µg/mL
COCCCNC(=S)N1CCN(C)CC1	> 34.7 µg/mL
CCOc1ccc(C(=O)O/N=C(\N)c2ccccn2)cc1OCC	21.4 µg/mL (≈ 65 µM)
CSc1ccccc1NC(=O)Nc1ccccc1Cl	1.7 µg/mL (≈ 5.81 µM)
CCC(C(=O)Nc1ccc(C)cc1)c1ccccc1 (stereo unspecified)	< 0.5 µg/mL
Br.CC(=O)c1sc(Nc2ccc(C)cc2)nc1C	> 49.1 µg/mL
CCCC(=O)Nc1ccc(-c2nc3ncccc3o2)cc1	2.1 µg/mL (≈ 7.46 µM)
CC1CCN(S(=O)(=O)c2cnc[nH]2)CC1	> 34.4 µg/mL
CCOc1ccc(N=C2NC(=O)CS2)cc1	> 35.4 µg/mL
CC(N=C1NS(=O)(=O)c2ccccc21)C(=O)NCc1ccc(F)cc1 (stereo unspecified)	> 54.2 µg/mL
O=C(CSc1nnc2ccccn12)NC(=O)c1ccccc1Cl	> 52 µg/mL
O=[N+]([O-])c1cccnc1N1CCN(c2ccccc2F)CC1	9.6 µg/mL (≈ 31.8 µM)
COC(=O)c1cc2occc2n1Cc1nc(-c2ccccc2F)oc1C	1.4 µg/mL (≈ 3.95 µM)
COc1ccccc1C1N=C(c2ccccc2C)NO1 (stereo unspecified)	24 µg/mL (≈ 89.4 µM)
CCCCn1c(O)c(C(C)=Nc2ccc3c(c2)CCC3)c(=O)[nH]c1=O	< 0.2 µg/mL
Cl.O=C(CCN1CCOCC1)NC12CC3CC(CC(C3)C1)C2	48.9 µg/mL
CCOC(=O)N1CCN(c2cc(=O)n(C)c(=O)n2C)CC1	> 44.4 µg/mL
Cc1cc(=O)oc2c(CN3CCCC3)c(O)ccc12	> 38.9 µg/mL
Cc1c(C(=O)N2CCN(S(=O)(=O)c3ccccc3)CC2)oc2ccc(Br)cc12	6.8 µg/mL (≈ 14.7 µM)

Source: PubChem BioAssay AID1996
